# Results published in PubChem BioAssay AID1552 (Sanford-Burnham Center for Chemical Genomics, 2009).
# Active and inactive are the calls of the source. The rule behind the calls is not given here.
# Target: Ubiquitin-conjugating enzyme E2 N (Homo sapiens) (UniProt P61088)
# Assay: UBE2N binders by NMR, biophysical, purified protein (AID 1552)
# Details: NMR binding to purified UBE2N
# Sequence of Ubiquitin-conjugating enzyme E2 N (Homo sapiens) (P61088 whole entry, looked up): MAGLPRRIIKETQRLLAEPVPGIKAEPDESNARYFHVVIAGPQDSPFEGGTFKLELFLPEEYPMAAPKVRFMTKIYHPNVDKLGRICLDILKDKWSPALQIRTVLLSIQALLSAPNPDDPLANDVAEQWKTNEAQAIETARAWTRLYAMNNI
row,SMILES,Kd
1,Cc1ccc(-c2c(C)n([O-])c(C)c(C)[n+]2=O)cc1,> 4 mM (inactive)
2,Nc1ccccc1C(=O)CC(N)C(=O)O (configuration not stated),> 4 mM (inactive)
3,COc1cc(/C=C/C(=O)O)cc(OC)c1OC,> 4 mM (inactive)
4,c1cnc(N2CCNCC2)nc1,> 4 mM (inactive)
5,CC(=O)OCc1cc(=O)n(C)c(=O)n1C,> 4 mM (inactive)
6,C=Cc1c(C)c2cc3[nH]c(cc4nc(cc5nc(cc1[nH]2)C(C)=C5CCC(=O)O)C(CCC(=O)O)=C4C)c(C)c3C=C,> 4 mM (inactive)
7,O=C(Nc1cnccn1)c1ccncc1,> 4 mM (inactive)
8,Oc1ccc(C(=S)N2CCCCC2)cc1Cl,> 4 mM (inactive)
9,Cc1cc(=O)n(CC(C)C)c(O)c1C#N,> 4 mM (inactive)
10,COc1cc([C@@H]2c3cc4c(cc3C(OC3O[C@@H]5COC(C)O[C@H]5[C@H](O)[C@H]3O)C3COC(=O)[C@@H]32)OCO4)cc(OC)c1O (some centres not stated),> 4 mM (inactive)
11,COc1ccccc1-c1c(C)nn2c(C)c(C(C)=O)cnc12,> 4 mM (inactive)
12,Cc1nnc(SCC(N)=O)c2ccccc12,> 4 mM (inactive)
13,O=C(O)C1=Cc2ccccc2OC1,> 4 mM (inactive)
14,NCc1csc(-c2cccs2)n1,> 4 mM (inactive)
15,Cc1[nH]c2ccccc2c1CN(C)C,> 4 mM (inactive)
16,Cc1c(C(=O)Nc2cnccn2)oc2ccccc12,> 4 mM (inactive)
17,S=c1[nH]c2cccnc2[nH]1,> 4 mM (inactive)
18,Oc1cnc2ccccc2c1CN1CCOCC1,> 4 mM (inactive)
19,NC(=O)CSc1ccccn1,> 4 mM (inactive)
20,Cc1nnc2sc(-c3ccco3)nn12,> 4 mM (inactive)
21,CSc1nnc2c(n1)OC(C)=Nc1ccccc1-2,> 4 mM (inactive)
22,Cc1ccc(N2C(=O)CC(=O)NC2=O)cc1,> 4 mM (inactive)

row,SMILES,Kd
1,COc1ccc(C(O)c2nccn2C)cc1 (configuration not stated),> 4 mM (inactive)
2,Cc1cccn2cc(CNc3ccccc3)nc12,> 4 mM (inactive)
3,Nc1ccc(Cc2ccc(N)cc2)cc1,> 4 mM (inactive)
4,S=c1[nH]ncn1-c1ccccc1,> 4 mM (inactive)
5,COc1cc2c(cc1OC)-c1nnnn1C(C)(C)C2,> 4 mM (inactive)
6,CSc1ccc2nnc(-c3cccnc3)n2n1,> 4 mM (inactive)
7,O=C(OC[C@H]1O[C@H](OC(=O)c2cc(O)c(O)c(OC(=O)c3cc(O)c(O)c(O)c3)c2)[C@H](OC(=O)c2cc(O)c(O)c(OC(=O)c3cc(O)c(O)c(O)c3)c2)[C@@H](OC(=O)c2cc(O)c(O)c(OC(=O)c3cc(O)c(O)c(O)c3)c2)[C@@H]1OC(=O)c1cc(O)c(O)c(OC(=O)c2cc(O)c(O)c(O)c2)c1)c1cc(O)c(O)c(OC(=O)c2cc(O)c(O)c(O)c2)c1,> 4 mM (inactive)
8,COc1ccc(-c2cc(=O)c3cc(OC)ccc3o2)cc1,> 4 mM (inactive)
9,CC(=O)Nc1ccc(NC(=O)N2CCOCC2)cc1,> 4 mM (inactive)
10,CCOC(=O)c1cc2ccccc2oc1=O,> 4 mM (inactive)
11,OCc1ccc2nsnc2c1,> 4 mM (inactive)
12,Cc1nccc(-c2cccc(N)c2)n1,> 4 mM (inactive)
13,c1ccc(C[N+]23CCN(CC2)CC3)cc1,> 4 mM (inactive)
14,CC(=O)NCC1OCCc2ccccc21 (configuration not stated),> 4 mM (inactive)
15,O=C1N=C(N2CCOCC2)S/C1=C\c1cccnc1,> 4 mM (inactive)
16,COC(=O)c1c(C)cc(OC)cc1O,> 4 mM (inactive)
17,CCC(CO)NC(=O)c1snnc1C (configuration not stated),> 4 mM (inactive)
18,COc1ccc(C(C)=O)c(O)c1,> 4 mM (inactive)
19,O=C(O)c1ncoc1-c1ccccc1,> 4 mM (inactive)
20,CC(=O)c1cccc(NS(=O)(=O)N(C)C)c1,> 4 mM (inactive)
21,O=C(NCCCSc1ncccn1)Nc1ncccn1,> 4 mM (inactive)
22,Cn1c(NCc2ccco2)nc2ccccc21,> 4 mM (inactive)

row,SMILES,Kd
1,CSc1nc(-c2ccco2)nn1S(C)(=O)=O,> 4 mM (inactive)
2,Nc1ccc2[nH]ncc2c1,> 4 mM (inactive)
3,O=C1CC(c2ccccc2)n2ncnc2N1 (configuration not stated),> 4 mM (inactive)
4,Clc1ccccc1-c1nc(-c2cccnc2)no1,> 4 mM (inactive)
5,CC1(C)CC2C1CC[C@]1(C)CCC3C(C(=O)O)CC(=O)O[C@@]32C1 (some centres not stated),> 4 mM (inactive)
6,CC(=O)Nc1ccc(-c2ccc3nncn3n2)cc1,> 4 mM (inactive)
7,COc1ccc2c(c1)OC/C(=C/c1ccc(O)c(O)c1)C2=O,> 4 mM (inactive)
8,O=C(c1nc2ncccn2n1)N1CCc2ccccc2C1,> 4 mM (inactive)
9,CN1CCN(C(=S)c2ccc(N(C)C)cc2)CC1,> 4 mM (inactive)
10,O=C(Oc1ccc2c(c1)OCC2=O)c1ccccc1,> 4 mM (inactive)
11,COc1ccc(Cl)cc1-c1n[nH]c(=S)n1C,> 4 mM (inactive)
12,CCn1cnc2cc([N+](=O)[O-])ccc2c1=O,> 4 mM (inactive)
13,CCc1ccc2oc(-c3cc(N)cc(C)c3O)nc2c1,> 4 mM (inactive)
14,CC(O)c1ccc(C(C)O)cc1 (configuration not stated),> 4 mM (inactive)
15,Brc1ccc(-c2nc(-c3ccncc3)no2)o1,> 4 mM (inactive)
16,COc1cc(C(=S)N2CCOCC2)ccc1O,> 4 mM (inactive)
17,NC(=O)CSc1nc2ccccc2c(=O)[nH]1,> 4 mM (inactive)
18,CCCn1c(C)cc(=O)[nH]c1=O,> 4 mM (inactive)
19,Nc1cccc(S(=O)(=O)N2CCCC2)c1,> 4 mM (inactive)
20,O=C1NC(=O)C(C(C[N+](=O)[O-])c2ccc(O)cc2)C(=O)N1 (configuration not stated),> 4 mM (inactive)
21,CC(=O)Nc1ccccc1-c1ccccc1NC(C)=O,> 4 mM (inactive)
22,CCn1nnc2c(NCc3ccccn3)ncnc21,> 4 mM (inactive)

row,SMILES,Kd
1,CN1CCN(C(=O)/C=C\C(=O)O)CC1,> 4 mM (inactive)
2,O=C1NC(=S)N/C1=C/c1ccsc1,> 4 mM (inactive)
3,O=C(Nc1ccon1)c1cccc(Cl)c1,> 4 mM (inactive)
4,Cc1nc2ccc(C(=O)O)cc2nc1C,> 4 mM (inactive)
5,Cc1nn2c3ccccc3nc2n(Cc2ccccc2)c1=O,> 4 mM (inactive)
6,Cc1[nH]c2ccccc2c1Cc1n[nH]c(=S)n1C,> 4 mM (inactive)
7,Cc1cc(C)n(-c2nncn2N)n1,> 4 mM (inactive)
8,Cc1nn(-c2ccccc2)nc1CN,> 4 mM (inactive)
9,COCCn1c(C)cc(O)cc1=O,> 4 mM (inactive)
10,O=C(Nc1nncs1)c1c(F)cccc1F,> 4 mM (inactive)
11,OCc1ncoc1-c1ccccc1,> 4 mM (inactive)
12,CS(=O)(=O)NC1CCN(Cc2ccccc2)CC1,> 4 mM (inactive)
13,O=C(Nc1cccc2cccnc12)c1cccnc1,> 4 mM (inactive)
14,CC1CCN(C(=O)c2ccc(NS(C)(=O)=O)cc2)CC1,> 4 mM (inactive)
15,NC(=O)CSc1nc2ccccc2[nH]1,> 4 mM (inactive)
16,O=P(c1ccccc1)(c1ccccc1)C1CCOCC1,> 4 mM (inactive)
17,CCC(=O)NC(=S)Nc1ccc(N2CCOCC2)cc1,> 4 mM (inactive)
18,CSc1nc(O)cc(=O)[nH]1,> 4 mM (inactive)
19,C/C=C(\C)c1nnc(NC(=O)c2ccco2)s1,> 4 mM (inactive)
20,Cc1ccc2cc(N)ccc2n1,> 4 mM (inactive)
21,O=C(O)CCS(=O)(=O)c1ccccc1,> 4 mM (inactive)
